Here are results for five molecules from PMC6321071, “Chenodeoxycholic Acid from Bile Inhibits Influenza A Virus Replication via Blocking Nuclear Export of Viral Ribonucleoprotein Complexes” (Molecules, 2018).

Structures can show the parent of a compound that is named as a salt. Where two headings read alike, the source gives them in different places.

Data set [1] relates to H5N1. As to the kind of experiment: microbe, parasite or virus in culture. It is filed as cell-based, Influenza A virus A/Duck/Guangdong/99 (H5N1). As to conditions: Influenza A virus, H5N1, A549, read-out: IC50 (H5N1).
Data set [2] deals with H9N2. As to the kind of experiment: microbe, parasite or virus in culture. The format is cell-based, Influenza A virus A/Chicken/Guangdong/96 (H9N2). As to conditions: Influenza A virus, H9N2, A549, read-out: IC50 (H9N2).
Data set [3] has as its system PR8 (H1N1). As to the kind of experiment: microbe, parasite or virus in culture. The format is cell-based, Influenza A virus A/Puerto Rico/8/34 (PR8). To be noted: Influenza A virus, A549, read-out: IC50 (PR8 (H1N1)).
For data set [4], the system named is H5N1. As to the kind of experiment: microbe, parasite or virus in culture. The format is cell-based, Influenza A virus A/Duck/Guangdong/99 (H5N1). As to conditions: Influenza A virus, H5N1, MDCK, read-out: IC50 (H5N1).
The test system of data set [5] is H9N2. The data set is described as follows: microbe, parasite or virus in culture. The format is cell-based, Influenza A virus A/Chicken/Guangdong/96 (H9N2). As to conditions: Influenza A virus, H9N2, MDCK, read-out: IC50 (H9N2).
Data set [6] has as its system PR8 (H1N1). As to the kind of experiment: microbe, parasite or virus in culture. To be noted: Influenza A virus, MDCK, read-out: IC50 (PR8 (H1N1)). The format is cell-based, Influenza A virus A/Puerto Rico/8/34 (PR8).
Data set [7] concerns influenza A virus (H5N1, H9N2, H1N1). The data set is described as follows: microbe, parasite or virus in culture. It is filed as cell-based. To be noted: for IC50: Influenza A virus, read-out: IC50 range over three IAV subtypes.
For the next data set, the system named is H5N1 virus. The format is cell-based, Influenza A virus A/Duck/Guangdong/99 (H5N1).
For data set [8], the system named is PR8 (H1N1). The format is cell-based, Influenza A virus A/Puerto Rico/8/34 (PR8).
For the next data set, the system named is H9N2 virus. The format is cell-based, Influenza A virus A/Chicken/Guangdong/96 (H9N2).
In data set [9] the test system is H5N1. It is filed as cell-based, Influenza A virus A/Duck/Guangdong/99 (H5N1). As to conditions: 60 μM.
The test system of data set [10] is H5N1. The format is cell-based, Influenza A virus A/Duck/Guangdong/99 (H5N1).
Data set [11] has as its system nuclear export of viral RNP complexes (H5N1). The format is cell-based, Influenza A virus A/Duck/Guangdong/99 (H5N1).
The nature of data set [12]: MTT cytotoxicity assay on A549 cells. As to conditions: human. (In general: Formazan colour is commonly taken as a measure of viable cells.)
The next data set relates to A549 cells. The data set is described as follows: MTT cytotoxicity assay on A549 cells. To be noted: 48 or 72 h treatment, MTT.
A short description of data set [13]: MTT cytotoxicity assay on MDCK cells. As to conditions: dog.
Another data set relates to MDCK cells. As to the kind of experiment: MTT cytotoxicity assay on MDCK cells. As to conditions: 48 or 72 h treatment, MTT.

Usually IC50 stands for the concentration needed to halve the response being measured. As a reminder, the CC50 is the concentration that lowers cell viability or growth by half. Higher therefore signals lower toxicity to the cells. Take `C[C@H](CCC(=O)O)[C@H]1CC[C@H]2[C@@H]3[C@H](O)C[C@@H]4C[C@H](O)CC[C@]4(C)[C@H]3CC[C@]12C` [CDCA, Chenodeoxycholic acid]: the IC50 with H5N1 [1] was 8.2 ± 1.2 µM; with H9N2 [2], 11.5 ± 1.7 µM; with PR8 (H1N1) [3], 7.7 ± 0.7 µM; with H5N1 [4] it was 6.5 ± 0.5 µM; in the data set with H9N2 [5], 5.5 ± 0.7 µM; in the data set with PR8 (H1N1) [6], 7.2 ± 0.7 µM. Also, the IC50 in [7] lay within 5.5 to 11.5 µM. For the same molecule, the progeny virus titers result in [7] is given as “significantly inhibited”. Further, in the data set with H5N1 virus, the “H5N1 replication (CPE, NP expression)” value is “significantly inhibited”. Also, the “anti-IAV activity, CPE (PR8 (H1N1))” value with PR8 (H1N1) [8] was “reduced CPE”. Besides, the “anti-IAV activity, CPE (H9N2)” value in the data set on H9N2 virus is reported as “reduced CPE”. For the same molecule, the “decrease of progeny virus yield, post-treatment” value in the data set with H5N1 [9] was “more than 90%”. Besides, in the data set on H5N1 [9], the “progeny virus yield and viral NP production, pretreatment” value is on record as “did not reduce”. Moreover, the “virus replication, cotreatment” value with H5N1 [9] was “did not affect”. Further, the “inhibition of virus replication (NP expression), added 4–6 and 6–8 hpi” value in the data set on H5N1 [10] (60 μM) is “more significant inhibition”. Besides, the “early NP localization events (cytosol to nucleus translocation)” value in [11] is “did not affect”. For the same molecule, the “nuclear export of vRNP complexes” value in data set [11] is listed as “inhibited”. Moreover, the CC50 was 372 ± 41.2 µM in data set [12] and 121 ± 9.7 µM in data set [13]. Besides, the “concentrations with no obvious cytotoxicity” value with A549 cells was at most 125 µM; with MDCK cells, at most 62.5 µM.

`C[C@H](CCC(=O)O)[C@H]1CC[C@H]2[C@@H]3C[C@H](O)[C@@H]4C[C@H](O)CC[C@]4(C)[C@H]3CC[C@]12C` [HDCA, hyodeoxycholic acid]: the IC50 was 60 ± 5.5 µM in the data set with H5N1 [1]; 53 ± 6.5 µM in the data set on H9N2 [2]; 73.7 ± 6.7 µM in the data set with PR8 (H1N1) [3]; 41.2 ± 3.5 µM in the data set on H5N1 [4]; 31 ± 2.2 µM in the data set with H9N2 [5]; 43.5 ± 2.7 µM with PR8 (H1N1) [6]. The IC50 in [7] lay in the range of 31 to 73.7 µM. Besides, the figures for the CC50 in data set [12] and in [13] were 486 ± 55 µM and 414 ± 33.7 µM, respectively.

For `CCC(=C/[C@H](C)C/C=C/C(C)=C/[C@@H](C)C(=O)[C@@H](C)[C@H](O)[C@@H](C)C/C(C)=C/C(=O)O)/C=C/[C@@H]1OC(=O)C=C[C@@H]1C` [Leptomycin B (LMB), Leptomycin B], the “nuclear export of vRNP complexes” value in data set [11] is given as “efficiently blocked”.

`C[C@H](CCC(=O)O)[C@H]1CC[C@H]2[C@@H]3[C@@H](O)C[C@@H]4C[C@H](O)CC[C@]4(C)[C@H]3CC[C@]12C` [UDCA, ursodeoxycholic acid]: the IC50 turned out to be 34.2 ± 3.7 µM in the data set with H5N1 [1]; 58.7 ± 4.5 µM in the data set on H9N2 [2]; 43 ± 4.5 µM with PR8 (H1N1) [3]; 47.2 ± 3.2 µM in the data set on H5N1 [4]; 36.7 ± 3.5 µM in the data set with H9N2 [5]; 56.2 ± 5 µM with PR8 (H1N1) [6]. Besides, the IC50 in data set [7] lay in the range of 31 to 73.7 µM. The CC50 is 815 ± 49.2 µM in [12] and 596 ± 53 µM in data set [13].

On to `NC(=O)c1ncn([C@@H]2O[C@H](CO)[C@@H](O)[C@H]2O)n1` [ribavirin, Ribavirin hydrochloride], for which the “reduction of progeny virus production relative to 60 μM CDCA” value in data set [7] (90 μM) is recorded as “slightly more potent”. Also, in the data set on H5N1 virus (90 μM), the “inhibition of H5N1 infection (CPE, NP expression)” value is “significant inhibition”. For the same molecule, in the data set on H5N1 [10], the “IAV inhibition (NP expression), added 6–8 hpi” value is “no inhibition” and the “IAV inhibition (NP expression), added before 6 hpi” value is listed as “much better IAV inhibition”. In data set [11], the “nuclear export of vRNP complexes” value was “did not block”.
